This test in a line: luciferase reporter signal increase in glioma cells, dose response, N-linked glycosylation inhibitor project, D54 ERlucT glioma cells, dry powder, set 6 (AID 1053121). To be noted: D54 ERlucT glioma cells, NLG luciferase reporter gain-of-signal, 24 h; at 19.5 µM (top of the series). A general note: In a reporter assay the amount or activity of a reporter protein is the signal.

The structures appear in SMILES notation. Active and inactive are the calls of the source.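 Rule for the calls: active = fitted curve reaches 40% activation below the top valid dose in every replicate test, signal rising; inconclusive = replicate tests disagree on the call; inactive = all replicate tests inactive, including opposite-direction effects.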

`CN(C)C(=O)c1cc(S(=O)(=O)N(C)C)ccc1N1CCCC1`: the activation (reporter increase) was 8.83% (inactive).
